Patent US20210032291A1, “Compstatin Analogs With Improved Pharmacokinetic Properties” (The Trustees of the University of Pennsylvania, priority 2011, published 2021)
Like-named read-outs stand apart in the source and are kept apart here. Bridge positions count the residues as written; N and C are the ends. Square brackets hold non-standard residues; d marks the D form. Peptide text beside a SMILES is read from it. Trp(1-Me) = Cn1cc(C[C@H](N)C(=O)O)c2ccccc21; NMeI = CC[C@H](C)[C@H](NC)C(=O)O; Orn = NCCC[C@H](N)C(=O)O; Sar = CNCC(=O)O

Target: T1, C3b (Homo sapiens, UniProt P01024)
T1 construct: Biotinylated C3b was captured site-specifically on a streptavidin chip
Experiment: SPR kinetic analysis of binding to immobilized C3b (Biacore, single cycle kinetics)
Conditions: for Kd: read-out: KD: binding constant from SPR; for koff: read-out: kd: dissociation rate
Procedure: SPR analysis. The interaction of the compstatin analogs with C3b was characterized using a Biacore 3000 instrument (GE Healthcare, Corp., Piscataway, N.J.). The running buffer was PBS, pH 7.4 (10 mM sodium phosphate, 150 mM NaCl) with 0.005% Tween-20. Biotinylated C3b was captured site-specifically on a streptavidin chip at about 3000 and 5000 RU density; two untreated flow cells were used as reference surface. For kinetic analysis, sets of five increasing concentrations of a particular compound were injected over the chip surface one after the other in a single cycle. […] Processed biosensor data were globally fitted to a 1:1 Langmuir binding model (kindly provided by GE Helthcare), and the equilibrium dissociation constant (KD) was calculated from the equation KD=kd/ka. Each assay was performed at least twice.

T1 sequence (P01024 23-667 limits assumed): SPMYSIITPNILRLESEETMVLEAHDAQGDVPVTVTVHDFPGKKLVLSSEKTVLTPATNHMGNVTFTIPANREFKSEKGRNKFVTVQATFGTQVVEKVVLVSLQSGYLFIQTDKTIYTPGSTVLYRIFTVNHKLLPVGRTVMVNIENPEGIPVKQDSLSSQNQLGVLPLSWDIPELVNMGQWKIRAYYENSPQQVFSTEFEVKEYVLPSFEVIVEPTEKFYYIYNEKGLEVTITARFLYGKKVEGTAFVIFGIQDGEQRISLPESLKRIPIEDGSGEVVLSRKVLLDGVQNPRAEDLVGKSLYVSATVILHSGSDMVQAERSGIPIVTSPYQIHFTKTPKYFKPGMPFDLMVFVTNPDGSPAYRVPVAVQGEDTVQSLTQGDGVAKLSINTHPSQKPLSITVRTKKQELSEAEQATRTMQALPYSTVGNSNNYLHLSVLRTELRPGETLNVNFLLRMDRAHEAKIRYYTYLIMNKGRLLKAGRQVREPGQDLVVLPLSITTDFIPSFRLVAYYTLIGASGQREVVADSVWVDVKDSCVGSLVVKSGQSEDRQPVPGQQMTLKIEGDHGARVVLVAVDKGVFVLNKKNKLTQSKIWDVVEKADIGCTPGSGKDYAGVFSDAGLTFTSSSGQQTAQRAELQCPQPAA
T1 sequence (P01024 749-1663 partner limits assumed): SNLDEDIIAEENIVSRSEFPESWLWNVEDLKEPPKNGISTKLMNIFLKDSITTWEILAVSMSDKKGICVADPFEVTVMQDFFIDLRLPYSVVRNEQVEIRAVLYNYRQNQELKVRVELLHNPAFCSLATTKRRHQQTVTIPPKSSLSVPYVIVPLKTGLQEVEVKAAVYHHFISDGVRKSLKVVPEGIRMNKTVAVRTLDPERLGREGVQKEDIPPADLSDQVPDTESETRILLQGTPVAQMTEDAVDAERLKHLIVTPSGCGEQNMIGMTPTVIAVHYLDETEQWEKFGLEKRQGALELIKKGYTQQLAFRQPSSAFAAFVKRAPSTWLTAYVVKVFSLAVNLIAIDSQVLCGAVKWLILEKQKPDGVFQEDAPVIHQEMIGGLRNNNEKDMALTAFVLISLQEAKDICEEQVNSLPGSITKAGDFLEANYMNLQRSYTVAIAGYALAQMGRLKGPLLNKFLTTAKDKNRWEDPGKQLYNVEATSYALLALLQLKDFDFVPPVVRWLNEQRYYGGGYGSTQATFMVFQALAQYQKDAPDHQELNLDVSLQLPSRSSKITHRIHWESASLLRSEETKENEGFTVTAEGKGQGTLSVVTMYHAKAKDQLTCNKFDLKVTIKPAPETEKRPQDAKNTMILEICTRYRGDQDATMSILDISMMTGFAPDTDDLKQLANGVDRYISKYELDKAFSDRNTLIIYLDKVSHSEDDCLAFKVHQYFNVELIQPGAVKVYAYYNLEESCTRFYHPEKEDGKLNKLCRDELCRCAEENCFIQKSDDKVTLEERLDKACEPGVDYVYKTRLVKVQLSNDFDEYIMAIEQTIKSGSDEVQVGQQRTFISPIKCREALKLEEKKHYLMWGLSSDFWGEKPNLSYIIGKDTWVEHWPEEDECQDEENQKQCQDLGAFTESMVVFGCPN

SMILES	ka: association rate (Table 1, N-terminal analogs)	Kd (Table 1, N-terminal analogs) [nM]	koff (Table 1, N-terminal analogs) [s⁻¹]	ka: association rate (Table 2, Cp40-based analogs)	Kd (Table 2, Cp40-based analogs) [nM]	koff (Table 2, Cp40-based analogs) [s⁻¹]
CC[C@H](C)[C@H](NC(=O)[C@H](N)Cc1c[nH]c2ccccc12)C(=O)N[C@H]1CSSC[C@@H](C(=O)N(C)[C@H](C(N)=O)[C@@H](C)CC)NC(=O)[C@H](CCCNC(=N)N)NC(=O)[C@H](Cc2c[nH]cn2)NC(=O)[C@H](C)NC(=O)CN(C)C(=O)[C@H](Cc2c[nH]c3ccccc23)NC(=O)[C@H](CC(=O)O)NC(=O)[C@H](CCC(N)=O)NC(=O)[C@H](Cc2cn(C)c3ccccc23)NC(=O)[C@H](C(C)C)NC1=O [compound 16]	2.0 ± 0.2 10^6/Ms	–	–	–	–	–
CC[C@H](C)[C@H](NC(=O)[C@@H](NC)C(C)C)C(=O)N[C@H]1CSSC[C@@H](C(=O)N(C)[C@H](C(N)=O)[C@@H](C)CC)NC(=O)[C@H](CCCNC(=N)N)NC(=O)[C@H](Cc2c[nH]cn2)NC(=O)[C@H](C)NC(=O)CN(C)C(=O)[C@H](Cc2c[nH]c3ccccc23)NC(=O)[C@H](CC(=O)O)NC(=O)[C@H](CCC(N)=O)NC(=O)[C@H](Cc2cn(C)c3ccccc23)NC(=O)[C@H](C(C)C)NC1=O [compound 11]	1.8 ± 0.3 10^6/Ms	1.9 ± 0.1	0.0035 ± 0.0006	–	–	–
CC[C@H](C)[C@H](NC)C(=O)N[C@H](C(=O)N[C@H]1CSSC[C@@H](C(=O)N(C)[C@H](C(N)=O)[C@@H](C)CC)NC(=O)[C@H](CCCNC(=N)N)NC(=O)[C@H](Cc2c[nH]cn2)NC(=O)[C@H](C)NC(=O)CN(C)C(=O)[C@H](Cc2c[nH]c3ccccc23)NC(=O)[C@H](CC(=O)O)NC(=O)[C@H](CCC(N)=O)NC(=O)[C@H](Cc2cn(C)c3ccccc23)NC(=O)[C@H](C(C)C)NC1=O)[C@@H](C)CC [compound 12]	1.6 ± 0.2 10^6/Ms	2.4 ± 0.5	0.0037 ± 0.0003	–	–	–
CC[C@H](C)[C@H](NC(=O)[C@H](N)Cc1ccc(O)cc1)C(=O)N[C@H]1CSSC[C@@H](C(=O)N(C)[C@H](C(N)=O)[C@@H](C)CC)NC(=O)[C@H](CCCNC(=N)N)NC(=O)[C@H](Cc2c[nH]cn2)NC(=O)[C@H](C)NC(=O)CN(C)C(=O)[C@H](Cc2c[nH]c3ccccc23)NC(=O)[C@H](CC(N)=O)NC(=O)[C@H](CCC(N)=O)NC(=O)[C@H](Cc2cn(C)c3ccccc23)NC(=O)[C@H](C(C)C)NC1=O [Cp40 (6Asn)] (H-[dY]ICV[Trp(1-Me)]QNW[Sar]AHRC[NMeI]-NH2; disulfide 3-13)	–	–	–	0.9 ± 0.1 10^6/Ms	3 ± 0.4	0.0028 ± 0.0001
CC[C@H](C)[C@H](NC(=O)[C@@H](N)Cc1c[nH]c2ccccc12)C(=O)N[C@H]1CSSC[C@@H](C(=O)N(C)[C@H](C(N)=O)[C@@H](C)CC)NC(=O)[C@H](CCCNC(=N)N)NC(=O)[C@H](Cc2c[nH]cn2)NC(=O)[C@H](C)NC(=O)CN(C)C(=O)[C@H](Cc2c[nH]c3ccccc23)NC(=O)[C@H](CC(=O)O)NC(=O)[C@H](CCC(N)=O)NC(=O)[C@H](Cc2cn(C)c3ccccc23)NC(=O)[C@H](C(C)C)NC1=O [compound 7] (H-WICV[Trp(1-Me)]QDW[Sar]AHRC[NMeI]-NH2; disulfide 3-13)	1.6 ± 0.1 10^6/Ms	2.2 ± 0.2	–	–	–	–
CC[C@H](C)[C@H](NC(=O)[C@H](Cc1ccccc1)NC)C(=O)N[C@H]1CSSC[C@@H](C(=O)N(C)[C@H](C(N)=O)[C@@H](C)CC)NC(=O)[C@H](CCCNC(=N)N)NC(=O)[C@H](Cc2c[nH]cn2)NC(=O)[C@H](C)NC(=O)CN(C)C(=O)[C@H](Cc2c[nH]c3ccccc23)NC(=O)[C@H](CC(=O)O)NC(=O)[C@H](CCC(N)=O)NC(=O)[C@H](Cc2cn(C)c3ccccc23)NC(=O)[C@H](C(C)C)NC1=O [compound 10]	1.6 ± 0.2 10^6/Ms	1.8 ± 0.3	0.0029 ± 0.0003	–	–	–
CC[C@H](C)[C@H](NC(=O)[C@H](N)Cc1ccccc1)C(=O)N[C@H]1CSSC[C@@H](C(=O)N(C)[C@H](C(N)=O)[C@@H](C)CC)NC(=O)[C@H](CCCNC(=N)N)NC(=O)[C@H](Cc2c[nH]cn2)NC(=O)[C@H](C)NC(=O)CN(C)C(=O)[C@H](Cc2c[nH]c3ccccc23)NC(=O)[C@H](CC(=O)O)NC(=O)[C@H](CCC(N)=O)NC(=O)[C@H](Cc2cn(C)c3ccccc23)NC(=O)[C@H](C(C)C)NC1=O [compound 15]	2.3 ± 0.3 10^6/Ms	1.1 ± 0.1	0.0026	–	–	–
CC[C@H](C)[C@H](NC(=O)[C@H](N)CC1CCCCC1)C(=O)N[C@H]1CSSC[C@@H](C(=O)N(C)[C@H](C(N)=O)[C@@H](C)CC)NC(=O)[C@H](CCCNC(=N)N)NC(=O)[C@H](Cc2c[nH]cn2)NC(=O)[C@H](C)NC(=O)CN(C)C(=O)[C@H](Cc2c[nH]c3ccccc23)NC(=O)[C@H](CC(=O)O)NC(=O)[C@H](CCC(N)=O)NC(=O)[C@H](Cc2cn(C)c3ccccc23)NC(=O)[C@H](C(C)C)NC1=O [compound 17]	1.8 ± 0.5 10^6/Ms	1.5 ± 0.2	0.0027 ± 0.0004	–	–	–
CC[C@H](C)[C@H](NC(=O)[C@H](N)Cc1ccc(O)cc1)C(=O)N[C@H]1CSSC[C@@H](C(=O)N(C)[C@H](C(N)=O)[C@@H](C)CC)NC(=O)[C@H](CCCN)NC(=O)[C@H](Cc2c[nH]cn2)NC(=O)[C@H](C)NC(=O)CN(C)C(=O)[C@H](Cc2c[nH]c3ccccc23)NC(=O)[C@H](CC(N)=O)NC(=O)[C@H](CCC(N)=O)NC(=O)[C@H](Cc2cn(C)c3ccccc23)NC(=O)[C@H](C(C)C)NC1=O [Cp40 (11Orn 6Asn)] (H-[dY]ICV[Trp(1-Me)]QNW[Sar]AH[Orn]C[NMeI]-NH2; disulfide 3-13)	–	–	–	2.0 ± 0.4 10^6/Ms	1.5 ± 0.4	0.0028 ± 0.0006
CC[C@H](C)[C@H](NC(=O)[C@@H](N)Cc1ccccc1)C(=O)N[C@H]1CSSC[C@@H](C(=O)N(C)[C@H](C(N)=O)[C@@H](C)CC)NC(=O)[C@H](CCCNC(=N)N)NC(=O)[C@H](Cc2c[nH]cn2)NC(=O)[C@H](C)NC(=O)CN(C)C(=O)[C@H](Cc2c[nH]c3ccccc23)NC(=O)[C@H](CC(=O)O)NC(=O)[C@H](CCC(N)=O)NC(=O)[C@H](Cc2cn(C)c3ccccc23)NC(=O)[C@H](C(C)C)NC1=O [compound 5] (H-FICV[Trp(1-Me)]QDW[Sar]AHRC[NMeI]-NH2; disulfide 3-13)	2.1 ± 0.4 10^6/Ms	1.6 ± 0.2	0.0033 ± 0.0003	–	–	–
CC[C@H](C)[C@H](NC(=O)[C@@H](N)[C@@H](C)O)C(=O)N[C@H]1CSSC[C@@H](C(=O)N(C)[C@H](C(N)=O)[C@@H](C)CC)NC(=O)[C@H](CCCNC(=N)N)NC(=O)[C@H](Cc2c[nH]cn2)NC(=O)[C@H](C)NC(=O)CN(C)C(=O)[C@H](Cc2c[nH]c3ccccc23)NC(=O)[C@H](CC(=O)O)NC(=O)[C@H](CCC(N)=O)NC(=O)[C@H](Cc2cn(C)c3ccccc23)NC(=O)[C@H](C(C)C)NC1=O [compound 8] (H-TICV[Trp(1-Me)]QDW[Sar]AHRC[NMeI]-NH2; disulfide 3-13)	1.2 ± 0.1 10^6/Ms	2.6 ± 0.3	0.0031 ± 0.0002	–	–	–
CC[C@H](C)[C@H](NC(=O)[C@@H](N)CCCNC(=N)N)C(=O)N[C@H]1CSSC[C@@H](C(=O)N(C)[C@H](C(N)=O)[C@@H](C)CC)NC(=O)[C@H](CCCNC(=N)N)NC(=O)[C@H](Cc2c[nH]cn2)NC(=O)[C@H](C)NC(=O)CN(C)C(=O)[C@H](Cc2c[nH]c3ccccc23)NC(=O)[C@H](CC(=O)O)NC(=O)[C@H](CCC(N)=O)NC(=O)[C@H](Cc2cn(C)c3ccccc23)NC(=O)[C@H](C(C)C)NC1=O [compound 6] (H-RICV[Trp(1-Me)]QDW[Sar]AHRC[NMeI]-NH2; disulfide 3-13)	1.7 ± 0.2 10^6/Ms	1.7 ± 0.2	0.0029 ± 0.0002	–	–	–
CC[C@H](C)[C@@H](C(N)=O)N(C)C(=O)[C@@H]1CSSC[C@H](NC(=O)CNC(=O)[C@@H](N)Cc2ccc(O)cc2)C(=O)N[C@@H](C(C)C)C(=O)N[C@@H](Cc2cn(C)c3ccccc23)C(=O)N[C@@H](CCC(N)=O)C(=O)N[C@@H](CC(=O)O)C(=O)N[C@@H](Cc2c[nH]c3ccccc23)C(=O)N(C)CC(=O)N[C@@H](C)C(=O)N[C@@H](Cc2c[nH]cn2)C(=O)N[C@@H](CCCNC(=N)N)C(=O)N1 [peptide 20] (H-YGCV[Trp(1-Me)]QDW[Sar]AHRC[NMeI]-NH2; disulfide 3-13)	2.1 ± 0.3 10^6/Ms	3.5 ± 0.3	0.0073 ± 0.0014	–	–	–
CC[C@H](C)[C@H](NC(=O)[C@H](N)Cc1ccc(O)cc1)C(=O)N[C@H]1CSSC[C@@H](C(=O)N(C)[C@H](C(N)=O)[C@@H](C)CC)NC(=O)[C@H](CCCN)NC(=O)[C@H](Cc2c[nH]cn2)NC(=O)[C@H](C)NC(=O)CN(C)C(=O)[C@H](Cc2c[nH]c3ccccc23)NC(=O)[C@H](CC(=O)O)NC(=O)[C@H](CCC(N)=O)NC(=O)[C@H](Cc2cn(C)c3ccccc23)NC(=O)[C@H](C(C)C)NC1=O [Cp40 (11Orn)] (H-[dY]ICV[Trp(1-Me)]QDW[Sar]AH[Orn]C[NMeI]-NH2; disulfide 3-13)	–	–	–	2.5 ± 0.1 10^6/Ms	0.8 ± 0.1	0.002 ± 0.0001
CC[C@H](C)[C@H](NC(=O)[C@H](C)NC)C(=O)N[C@H]1CSSC[C@@H](C(=O)N(C)[C@H](C(N)=O)[C@@H](C)CC)NC(=O)[C@H](CCCNC(=N)N)NC(=O)[C@H](Cc2c[nH]cn2)NC(=O)[C@H](C)NC(=O)CN(C)C(=O)[C@H](Cc2c[nH]c3ccccc23)NC(=O)[C@H](CC(=O)O)NC(=O)[C@H](CCC(N)=O)NC(=O)[C@H](Cc2cn(C)c3ccccc23)NC(=O)[C@H](C(C)C)NC1=O [compound 13]	1.4 ± 0.2 10^6/Ms	2.5 ± 0.6	0.0034 ± 0.0003	–	–	–
CC[C@H](C)[C@H](NC(=O)[C@@H](C)N)C(=O)N[C@H]1CSSC[C@@H](C(=O)N(C)[C@H](C(N)=O)[C@@H](C)CC)NC(=O)[C@H](CCCNC(=N)N)NC(=O)[C@H](Cc2c[nH]cn2)NC(=O)[C@H](C)NC(=O)CN(C)C(=O)[C@H](Cc2c[nH]c3ccccc23)NC(=O)[C@H](CC(=O)O)NC(=O)[C@H](CCC(N)=O)NC(=O)[C@H](Cc2cn(C)c3ccccc23)NC(=O)[C@H](C(C)C)NC1=O [compound 18]	1.4 ± 0.3 10^6/Ms	2.5 ± 0.4	0.0034 ± 0.0004	–	–	–
